In US20090214580A1, “Peptide mixtures with immunomodulatory activity” (priority 2004, published 2009):

Columns and labels:
[1] = test system: PBMC from healthy donors and MS patients; test: T cell proliferation of PBMC, primary and secondary (3H-thymidine); type: cell-based, human; conditions: 20 μg/ml; healthy donor and MS patient PBMC; words
Experimental: FIG. 1: Peptide length and composition affect the stimulatory potential of complex mixtures (CM). The stimulatory capacity of CM ranging in size and composition were tested in PBMC from nine healthy donors in both primary (A,C) and secondary (B,D) proliferations to confirm the specificity of the response. 20 μg/ml of CM or GA were each added to 18 wells and the % of positive wells (those wells with CPM having an SI greater than twice that observed in background/control wells) determined from pooled data from all donors. Figures A and B analyze the contribution of peptide length and Figures C and D the composition or MHC-bias to stimulatory potential. […]
PBMC were isolated from leukocytaphereses and seeded in complete T cell medium (TCM; Iscove's modified Dulbecco's medium [IMDM] containing 2 mM 1-glutamine, 50 μg/ml gentamycin, penicillin-streptomycin 100 U/ml each, and 5% pooled human AB serum) at 2×10^5 cells/well into 96 well U-bottom microtiter plates (Nunc, Naperville, Ill.) and stimulated with CM and GA at 20 μg/ml. After 6 days, 100 μl samples of cell suspension were removed from these plates and transferred to a new microtiter plate to which 1 μCi/well of H^3-thymdidine (Amersham Pharmacia Biotech, Piscataway, N.J.) was added and after 16 hours harvested and counted in a scintillation counter (Microbeta, Wallac, Gatihersburg, Md.). […]

SJL mouse spleen cells = test: SJL mouse spleen primary proliferative responses to CM; type: cell-based; conditions: naive SJL spleen cells; 40, 10, 2.5 μg/ml; words
Experimental: FIG. 3: SJL mouse spleen primary proliferative responses to CM. Mouse splenic cells were seeded with 3 different doses of CM (40, 10 and 2.5 μg/ml) or GA to test for stimulatory potential of CM of (A) varying length or (B) differential anchor bias. 18 wells were seeded per antigen, and data from 2 experiments were pooled. % positive wells represents the proportion of wells with CPM at a SI greater than 2 compared to background/control wells.
(§1) 6-8 week old female SJL/J mice were purchased from Charles River Laboratories (Wilmington, Mass.). Spleen cells were isolated from anesthetized naïve SJL mice or 10 days after immunization with 200 μg of CM or GA in Complete Freund's Adjuvant (CFA—Difco Laboratories, Detroit, Mich.) on four spots on their back and subsequent aseptic spleen removal and red blood cell lysis using ACK lysis buffer from Biosource (Camarillo, Calif.). […] After six or three days in naïve or immunized mouse experiments respectively, 1 μCi ^3[H]-thymidine (Dupont, Wilmington, Del.) was added overnight and subsequently harvested and counted for thymidine incorporation on a Trilux liquid scintillation counter (Wallac, Gaithersburg, Md.).

[2] = test system: spleen cells from immunized SJL mice; test: Spleen cells of CM- or GA-immunized SJL mice, response to immunizing antigen; type: cell-based, mouse; conditions: spleen cells ten days after immunization; words
Description: (§2) FIG. 4. Cross reactivity of CM-specific lines to MBP. SJL mice were immunized with CM or GA to enhance the number of CM-specific T cells to assess for cross-reactivity to MBP. Spleen cells were removed from mice ten days post immunization and set into culture (6 wells per condition) with the initial immunizing antigen or human MBP at the μg/ml concentrations shown on the X axes. *p<0.05 by Student's t test comparing proliferation in test wells to control wells without antigen.
as §1

whole human MBP = test: Spleen cells of CM- or GA-immunized SJL mice, cross reactivity to human MBP; type: cell-based, mouse; conditions: spleen cells ten days after immunization; words
Description: as §2, §1

PLP139-151-induced EAE = test: Prophylaxis in PLP139-151-induced EAE; type: in vivo, SJL mice
multiple sclerosis = conditions: MS patients; cited from earlier work
HLA-DR2 = HLA-DR2 (Homo sapiens, UniProt P01903+P01911); conditions: cited from earlier work
EAE = conditions: Lewis rats; cited from earlier work

With Glatiramer acetate [GA] as the substance, how does the “stimulatory potential (proliferative responses, % positive wells)” value [1] read?
The value was “most frequently observed”.

And the “stimulatory potential (primary proliferative responses)” value (SJL mouse spleen cells)?
The value was “most frequently observed”.

And the “response to immunizing antigen (SI)” value [2]?
The value was “very high SIs”.

What about the “cross reactivity with whole human MBP” value (whole human MBP) of the same substance?
Its value is “cross reacted”.

And the “Cumulative disease score (day 0-24)” value (PLP139-151-induced EAE; 500 μg co-injected s.c. with 75 μg PLP 139-151, initial disease course, mean ± SEM)?
Its value is 10.2 ± 1.6.

And the “Cumulative disease score (day 24-45)” value (PLP139-151-induced EAE; 500 μg co-injected s.c. with 75 μg PLP 139-151, remaining disease course, mean ± SEM)?
The value was 13.5 ± 3.0.

And the “prophylactic effect on the EAE disease course” value (PLP139-151-induced EAE; single 500 μg dose with PLP 139-151)?
Its value is “significantly reduce the overall disease score”.

What about the “reduction of cumulative disease score throughout the relapse phase” value (PLP139-151-induced EAE; single 500 μg dose with PLP 139-151, vs PLP alone) of the same substance?
Its value is “approximately one-third”.

What about the “reduction of the relapse rate in MS” value (multiple sclerosis) of the same substance?
The value was “about 30%”.

What about the “competition for binding of MBP (85-99) to HLA-DR2” value (HLA-DR2) of the same substance?
Its value is “effectively compete”.

With poly-YEAK as the substance, how does the “binding to DR2 molecules” value (HLA-DR2; compared with poly-YEA, -YEK and -YAK) read?
Its value is “better binders”.

For EYYKEYYKEYYK, which “effect on EAE” value (EAE) is on record?
The value was “ameliorate EAE”.
